According to patent publication US20260125382A1, “COMPOUNDS FOR INHIBITING OR DEGRADING CDK2 AND/OR CDK9 AND MEDICINAL USE THEREOF” (KOREA RESEARCH INSTITUTE OF CHEMICAL TECHNOLOGY, priority 2022, published 2026):

Assays:
[1] = biological target: T1, CDK2 (Homo sapiens, UniProt P24941); test: CDK protein degradation activity (Western blotting), CDK2; type: cell-based; conditions: MDA-MB-231 cells, 16 hours, Western blot
T1 construct: endogenous in cells; host or cells: MDA-MB-231
Procedure, shortened: (§1)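 MDA-MB-231 cells were treated with compound at final concentrations of 100 nM, 1 μM and 10 μM, or DMSO vehicle, for 16 h. Lysates were resolved by SDS-PAGE and immunoblotted for CDK2, CDK9 and tubulin, with band intensities quantified densitometrically.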

[2] = biological target: T2, CDK9 (Homo sapiens, UniProt P50750); test: CDK protein degradation activity (Western blotting), CDK9; type: cell-based; conditions: MDA-MB-231 cells, 16 hours, Western blot
T2 construct: endogenous in cells; host or cells: MDA-MB-231
Procedure, shortened: as §1

T2 sequence (P50750 whole entry): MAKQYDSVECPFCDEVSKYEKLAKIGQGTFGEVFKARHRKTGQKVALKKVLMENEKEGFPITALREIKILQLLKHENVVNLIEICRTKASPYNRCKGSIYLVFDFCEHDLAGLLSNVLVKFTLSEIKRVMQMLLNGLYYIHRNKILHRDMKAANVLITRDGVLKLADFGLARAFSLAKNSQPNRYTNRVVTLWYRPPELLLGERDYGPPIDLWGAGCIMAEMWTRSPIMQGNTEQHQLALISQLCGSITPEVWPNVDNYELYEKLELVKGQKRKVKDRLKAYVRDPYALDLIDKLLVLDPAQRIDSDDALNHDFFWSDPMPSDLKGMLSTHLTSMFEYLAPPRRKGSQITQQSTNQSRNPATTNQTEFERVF

Enzyme degradation CDK2 (% remaining) @ 0.1 μM [1] | Enzyme degradation CDK2 (% remaining) @ 1 μM [1] | Enzyme degradation CDK2 (% remaining) @ 10 μM [1] | Enzyme degradation CDK9 (% remaining) @ 0.1 μM [2] | Enzyme degradation CDK9 (% remaining) @ 1 μM [2] | Enzyme degradation CDK9 (% remaining) @ 10 μM [2] | SMILES
0/0/0% | 0/0/0% | 0/0/0% | 0/0/0% | 0/0/0% | 0/0/0% | O=C1CCN(c2coc3cc(C(=O)N4CCC5(CC4)CC(N4CCN(c6ccc(Nc7ncnc8c7ncn8[C@H]7C[C@@H](NC(=O)Cc8ccccc8)C7)cc6)CC4)C5)ccc23)C(=O)N1 [Compound 191, N-((1s,3s)-3-(6-((4-(4-(7-(3-(2,4-dioxotetrahydropyrimidin-1(2H)-yl)benzofuran-6-carbonyl)-7-azaspiro[3.5]nonan-2-yl)piperazin-1-yl)phenyl)amino)-9H-purin-9-yl)cyclobutyl)-2-phenylacetamide]
70% | 70% | 50% | 20% | 20% | 10% | O=C1CC[C@H](N2C(=O)C=C(Nc3cccc(CC(=O)N4CCC5(CC4)CC(N4CCN(c6ccc(Nc7ncnc8c7ncn8[C@H]7C[C@@H](NC(=O)Cc8ccccc8)C7)cc6)CC4)C5)c3)C2=O)C(=O)N1 [Compound 192, N-((1s,3s)-3-(6-((4-(4-(7-(2-(3-((1-(2,6-dioxopiperidin-3-yl)-2,5-dioxo-2,5-dihydro-1H-pyrrol-3-yl)amino)phenyl)acetyl)-7-azaspiro[3.5]nonan-2-yl)piperazin-1-yl)phenyl)amino)-9H-purin-9-yl)cyclobutyl)-2-phenylacetamide]
20% | 20% | 10% | 0% | 10% | 10% | O=C1CC[C@H](N2C(=O)C=C(N3CCC(C(=O)N4CCC5(CC4)CC(N4CCN(c6ccc(Nc7ncnc8c7ncn8C7CC(NC(=O)Cc8ccccc8)C7)cc6)CC4)C5)CC3)C2=O)C(=O)N1 (stereo partly drawn) [Compound 193, N-((1s,3s)-3-(6-((4-(4-(7-(1-(1-(2,6-dioxopiperidin-3-yl)-2,5-dioxo-2,5-dihydro-1H-pyrrol-3-yl)piperidin-4-carbonyl)-7-azaspiro[3.5]nonan-2-yl)piperazin-1-yl)phenyl)amino)-9H-purin-9-yl)cyclobutyl)-2-phenylacetamide]
50% | 10% | 10% | 70% | 50% | 40% | COc1ccc(C(=O)N2CCC(CC(=O)N3CCN(c4ccc(Nc5ncnc6c5ncn6[C@H]5C[C@@H](NC(=O)Cc6ccccc6)C5)cc4)CC3)CC2)cc1N1CCC(=O)NC1=O [Compound 194, N-((1s,3s)-3-(6-((4-(4-(2-(1-(3-(2,4-dioxotetrahydropyrimidin-1(2H)-yl)-4-methoxybenzoyl)piperidin-4-yl)acetyl)piperazin-1-yl)phenyl)amino)-9H-purin-9-yl)cyclobutyl)-2-phenylacetamide]
80% | 50% | 50% | 20% | 10% | 10% | O=C1CCN(c2coc3cc(C(=O)N4CCC(CC(=O)N5CCN(c6ccc(Nc7ncnc8c7ncn8[C@H]7C[C@@H](NC(=O)Cc8ccccc8)C7)cc6)CC5)CC4)ccc23)C(=O)N1 [Compound 195, N-((1s,3s)-3-(6-((4-(4-(2-(1-(3-(2,4-dioxotetrahydropyrimidin-1(2H)-yl)benzofuran-6-carbonyl)piperidin-4-yl)acetyl)piperazin-1-yl)phenyl)amino)-9H-purin-9-yl)cyclobutyl)-2-phenylacetamide]
80% | 100% | 100% | 30% | 40% | 40% | O=C1CC[C@H](N2C(=O)C=C(Nc3cccc(CC(=O)N4CCC(CC(=O)N5CCN(c6ccc(Nc7ncnc8c7ncn8[C@H]7C[C@@H](NC(=O)Cc8ccccc8)C7)cc6)CC5)CC4)c3)C2=O)C(=O)N1 [Compound 196, N-((1s,3s)-3-(6-((4-(4-(2-(1-(2-(3-((1-(2,6-dioxopiperidin-3-yl)-2,5-dioxo-2,5-dihydro-1H-pyrrol-3-yl)amino)phenyl)acetyl)piperidin-4-yl)acetyl)piperazin-1-yl)phenyl)amino)-9H-purin-9-yl)cyclobutyl)-2-phenylacetamide]
30/30/30% | 30/30/30% | 30/30/30% | 10% | 10% | 0% | O=C1CC[C@H](N2C(=O)C=C(N3CCC(C(=O)N4CCC(CC(=O)N5CCN(c6ccc(Nc7ncnc8c7ncn8[C@H]7C[C@@H](NC(=O)Cc8ccccc8)C7)cc6)CC5)CC4)CC3)C2=O)C(=O)N1 [Compound 197, N-((1s,3s)-3-(6-((4-(4-(2-(1-(1-(1-(2,6-dioxopiperidin-3-yl)-2,5-dioxo-2,5-dihydro-1H-pyrrol-3-yl)piperidin-4-carbonyl)piperidin-4-yl)acetyl)piperazin-1-yl)phenyl)amino)-9H-purin-9-yl)cyclobutyl)-2-phenylacetamide]
0/0/0% | 0/0/0% | 0/0/0% | 50% | 30% | 10% | COc1ccc(C(=O)NC[C@H]2CC[C@H](CN3CCN(c4ccc(Nc5ncnc6c5ncn6[C@H]5C[C@@H](NC(=O)Cc6ccccc6)C5)cc4)CC3)CC2)cc1N1CCC(=O)NC1=O [Compound 198, 3-(2,4-dioxotetrahydropyrimidin-1(2H)-yl)-4-methoxy-N-(((1r,4r)-4-((4-(4-((9-((1s,3s)-3-(2-phenylacetamido)cyclobutyl)-9H-purin-6-yl)amino)phenyl)piperazin-1-yl)methyl)cyclohexyl)methyl)benzamide]
50% | 60% | 50% | 20% | 30% | 30% | O=C1CCN(c2coc3cc(C(=O)NC[C@H]4CC[C@H](CN5CCN(c6ccc(Nc7ncnc8c7ncn8[C@H]7C[C@@H](NC(=O)Cc8ccccc8)C7)cc6)CC5)CC4)ccc23)C(=O)N1 [Compound 199, 3-(2,4-dioxotetrahydropyrimidin-1(2H)-yl)-N-(((1r,4r)-4-((4-(4-((9-((1s,3s)-3-(2-phenylacetamido)cyclobutyl)-9H-purin-6-yl)amino)phenyl)piperazin-1-yl)methyl)cyclohexyl)methyl)benzofuran-6-carboxamide]
